In the supplement of paper PMC10307832:

Assays:
Assay in all cases: relative viability (nuclei count vs DMSO), 5 days (fraction); higher = more cells survive
[1] = test system: ABC-1
Summary of the method: (§1)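 Lung cancer cell lines were pin-tool dosed in 1536-well plates on the day after seeding, with either a lone drug or a fixed anchor-drug dose plus five library-drug doses (not always all listed) in √10 steps. Nuclei were counted on 4× images after 5 days. Relative viability is the ratio of treated-well to vehicle-well nuclei counts, with each value a median of duplicate plates.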

[2] = test system: CAL-12T
Summary of the method: as §1

[3] = test system: COR-L 105
Summary of the method: as §1

[4] = test system: ChaGo-K-1
Summary of the method: as §1

[5] = test system: EMC-BAC-2
Summary of the method: as §1

[6] = test system: EPLC-272H
Summary of the method: as §1

[7] = test system: HCC-15
Summary of the method: as §1

[8] = test system: HOP-62
Summary of the method: as §1

[9] = test system: LXF-289
Summary of the method: as §1

[10] = test system: NCI-H1666
Summary of the method: as §1

[11] = test system: NCI-H1755
Summary of the method: as §1

[12] = test system: NCI-H1915
Summary of the method: as §1

[13] = test system: NCI-H1975
Summary of the method: as §1

[14] = test system: NCI-H1993
Summary of the method: as §1

[15] = test system: NCI-H2023
Summary of the method: as §1

[16] = test system: NCI-H2085
Summary of the method: as §1

[17] = test system: NCI-H2126
Summary of the method: as §1

[18] = test system: NCI-H3122
Summary of the method: as §1

[19] = test system: NCI-H322M
Summary of the method: as §1

[20] = test system: NCI-H358
Summary of the method: as §1

[21] = test system: NCI-H441
Summary of the method: as §1

[22] = test system: UMC-11
Summary of the method: as §1

`CC1(C)CCC(c2ccc(Cl)cc2)=C(CN2CCN(c3ccc(C(=O)NS(=O)(=O)c4ccc(N[C@H](CCN5CCOCC5)CSc5ccccc5)c(S(=O)(=O)C(F)(F)F)c4)cc3)CC2)C1` [Navitoclax] + CCNC(=O)c1noc(-c2cc(C(C)C)c(O)cc2O)c1-c1ccc(CN2CCOCC2)cc1 [Luminespib] (partner 0.01 µM) gave a relative viability ([1]; first compound 0.005 µM) of 0.596, a relative viability ([1]; first compound 0.01581 µM) of 0.909 and a relative viability ([1]; first compound 0.05 µM) of 0.677. It also gave a relative viability ([1]; first compound 0.5 µM) of 0.6, a relative viability ([2]; first compound 0.005 µM) of 0.308 and a relative viability ([2]; first compound 0.01581 µM) of 0.563. It also gave a relative viability ([2]; first compound 0.05 µM) of 0.708, a relative viability ([2]; first compound 0.1581 µM) of 0.826 and a relative viability ([2]; first compound 0.5 µM) of 0.251. For the same compound, the relative viability ([3]; first compound 0.005 µM) was 0.801, the relative viability ([3]; first compound 0.01581 µM) was 1.2 and the relative viability ([3]; first compound 0.05 µM) was 0.974. The relative viability ([3]; first compound 0.1581 µM) was 0.701, the relative viability ([3]; first compound 0.5 µM) was 0.544 and the relative viability ([4]; first compound 0.005 µM) was 0.708. For the same compound, the relative viability ([4]; first compound 0.01581 µM) was 0.593, the relative viability ([4]; first compound 0.05 µM) was 0.306 and the relative viability ([4]; first compound 0.1581 µM) was 0.578. For the same compound, the relative viability ([4]; first compound 0.5 µM) was 0.636, the relative viability ([5]; first compound 0.005 µM) was 1.09 and the relative viability ([5]; first compound 0.01581 µM) was 1.24. It also gave a relative viability ([5]; first compound 0.05 µM) of 1.08, a relative viability ([5]; first compound 0.1581 µM) of 1.13 and a relative viability ([5]; first compound 0.5 µM) of 1.12. The relative viability ([6]; first compound 0.005 µM) was 0.391, the relative viability ([6]; first compound 0.05 µM) was 1 and the relative viability ([6]; first compound 0.1581 µM) was 0.647. The relative viability ([6]; first compound 0.5 µM) was 0.133, the relative viability ([7]; first compound 0.005 µM) was 0.299 and the relative viability ([7]; first compound 0.01581 µM) was 0.284. For the same compound, the relative viability ([7]; first compound 0.05 µM) was 0.546, the relative viability ([7]; first compound 0.1581 µM) was 0.352 and the relative viability ([7]; first compound 0.5 µM) was 0.256. The relative viability ([8]; first compound 0.005 µM) was 0.913, the relative viability ([8]; first compound 0.01581 µM) was 0.937 and the relative viability ([8]; first compound 0.05 µM) was 0.895. It also gave a relative viability ([8]; first compound 0.1581 µM) of 0.894, a relative viability ([8]; first compound 0.5 µM) of 0.993 and a relative viability ([9]; first compound 0.005 µM) of 0.631. It also gave a relative viability ([9]; first compound 0.01581 µM) of 0.754, a relative viability ([9]; first compound 0.05 µM) of 0.725 and a relative viability ([9]; first compound 0.1581 µM) of 0.584. For the same compound, the relative viability ([9]; first compound 0.5 µM) was 0.636, the relative viability ([10]; first compound 0.005 µM) was 0.881 and the relative viability ([10]; first compound 0.01581 µM) was 0.969. The relative viability ([10]; first compound 0.05 µM) was 0.989, the relative viability ([10]; first compound 0.1581 µM) was 1.05 and the relative viability ([10]; first compound 0.5 µM) was 1.05. For the same compound, the relative viability ([11]; first compound 0.005 µM) was 0.381, the relative viability ([11]; first compound 0.01581 µM) was 0.393 and the relative viability ([11]; first compound 0.05 µM) was 0.332. For the same compound, the relative viability ([11]; first compound 0.1581 µM) was 0.173, the relative viability ([11]; first compound 0.5 µM) was 0.426 and the relative viability ([12]; first compound 0.005 µM) was 0.749. The relative viability ([12]; first compound 0.01581 µM) was 0.778, the relative viability ([12]; first compound 0.05 µM) was 0.793 and the relative viability ([12]; first compound 0.1581 µM) was 0.746. The relative viability ([12]; first compound 0.5 µM) was 0.829, the relative viability ([13]; first compound 0.005 µM) was 0.24 and the relative viability ([13]; first compound 0.01581 µM) was 0.309. It also gave a relative viability ([13]; first compound 0.05 µM) of 0.191, a relative viability ([13]; first compound 0.1581 µM) of 0.118 and a relative viability ([13]; first compound 0.5 µM) of 0.132. It also gave a relative viability ([14]; first compound 0.005 µM) of 0.813, a relative viability ([14]; first compound 0.01581 µM) of 0.891 and a relative viability ([14]; first compound 0.05 µM) of 0.824. The relative viability ([14]; first compound 0.1581 µM) was 0.913, the relative viability ([14]; first compound 0.5 µM) was 0.803 and the relative viability ([15]; first compound 0.005 µM) was 0.782. The relative viability ([15]; first compound 0.01581 µM) was 0.921, the relative viability ([15]; first compound 0.05 µM) was 0.83 and the relative viability ([15]; first compound 0.1581 µM) was 0.568. It also gave a relative viability ([15]; first compound 0.5 µM) of 0.594, a relative viability ([16]; first compound 0.005 µM) of 0.488 and a relative viability ([16]; first compound 0.01581 µM) of 0.538. It also gave a relative viability ([16]; first compound 0.05 µM) of 0.484, a relative viability ([16]; first compound 0.1581 µM) of 0.46 and a relative viability ([16]; first compound 0.5 µM) of 0.383. For the same compound, the relative viability ([17]; first compound 0.005 µM) was 0.906, the relative viability ([17]; first compound 0.01581 µM) was 0.952 and the relative viability ([17]; first compound 0.05 µM) was 0.923. It also gave a relative viability ([17]; first compound 0.1581 µM) of 0.779, a relative viability ([17]; first compound 0.5 µM) of 0.844 and a relative viability ([18]; first compound 0.005 µM) of 0.09. The relative viability ([18]; first compound 0.01581 µM) was 0.0825, the relative viability ([18]; first compound 0.05 µM) was 0.11 and the relative viability ([18]; first compound 0.1581 µM) was 0.083. It also gave a relative viability ([18]; first compound 0.5 µM) of 0.0991, a relative viability ([19]; first compound 0.005 µM) of 0.81 and a relative viability ([19]; first compound 0.01581 µM) of 1.12. For the same compound, the relative viability ([19]; first compound 0.05 µM) was 1.07, the relative viability ([19]; first compound 0.1581 µM) was 0.908 and the relative viability ([19]; first compound 0.5 µM) was 0.908. The relative viability ([20]; first compound 0.005 µM) was 0.418, the relative viability ([20]; first compound 0.01581 µM) was 0.325 and the relative viability ([20]; first compound 0.05 µM) was 0.264. For the same compound, the relative viability ([20]; first compound 0.1581 µM) was 0.388, the relative viability ([20]; first compound 0.5 µM) was 0.242 and the relative viability ([21]; first compound 0.005 µM) was 0.294. It also gave a relative viability ([21]; first compound 0.01581 µM) of 0.288, a relative viability ([21]; first compound 0.05 µM) of 0.42 and a relative viability ([21]; first compound 0.1581 µM) of 0.351. For the same compound, the relative viability ([21]; first compound 0.5 µM) was 0.336, the relative viability ([22]; first compound 0.005 µM) was 0.986 and the relative viability ([22]; first compound 0.01581 µM) was 1.07. It also gave a relative viability ([22]; first compound 0.05 µM) of 1.13, a relative viability ([22]; first compound 0.1581 µM) of 1.05 and a relative viability ([22]; first compound 0.5 µM) of 0.829.
